{
  "source": "patent US3947578A",
  "about": "“Omega-[4-(3\"-indolyl)-piperidino]-alkyl-arylketones as nevroleptics” (Roussel Uclaf, priority 1972, dated 1976)",
  "note": "Where a name gives a salt, the structure may show the parent alone.",
  "data": [
    {"system": "mouse", "assay": "traction test (neuroleptic activity)", "type": "in vivo", "settings": "ip, 25 min, I.P., 25 minutes after intraperitoneal administration, read-out: DE50 Traction Test", "description": "a. The traction test which consists of suspending a mouse by his front paws from a metal wire stretched horizontally. […] The test was run 25 minutes after intraperitoneal administration of the test product to determine the DE50 dose at which 50% of the animals effected recovering in less than 5 seconds.", "units": {"ED50": "mg/kg"}, "values": [
      {"smiles": "O=C(CCCN1CCC(c2c[nH]c3ccccc23)CC1)c1ccc(F)cc1", "note": "[Example 1, p-fluoro-ω-[4'-(3\"-indolyl)-piperidino]-butyrophenone hydrochloride]", "ED50": 2.2},
      {"smiles": "Cn1cc(C2CCN(CCCC(=O)c3ccc(F)cc3)CC2)c2ccccc21", "note": "[Example 2, p-fluoro-ω-[4'-(1\"-methyl-3\"-indolyl)-piperidino]-butyrophenone hydrochloride]", "ED50": 5.2},
      {"smiles": "COc1ccc2c(C3CCN(CCCC(=O)c4ccc(F)cc4)CC3)c[nH]c2c1", "note": "[Example 3, p-fluoro-ω-[4'-(6\"-methoxy-3\"-indolyl)-piperidino]-butyrophenone hydrochloride]", "ED50": 1.2},
      {"smiles": "COc1ccc2[nH]cc(C3CCN(CCCC(=O)c4ccc(F)cc4)CC3)c2c1", "note": "[Example 4, p-fluoro-ω-[4'-(5\"-methoxy-3\"-indolyl)-piperidino]-butyrophenone hydrochloride]", "ED50": 1},
      {"smiles": "COc1ccc2c(C3CCN(CCCC(=O)c4ccc(F)cc4)CC3)c(C)[nH]c2c1", "note": "[Example 5, p-fluoro-ω-[4'-(2\"-methyl-6\"-methoxy-3\"-indolyl)-piperidino]butyrophenone]", "ED50": 3.8},
      {"smiles": "O=C(CCCN1CCC(c2c[nH]c3ccccc23)CC1)c1ccccc1", "note": "[Example 7, ω-[4'-(3'-indolyl)-piperidino]-butyrophenone hydrochloride]", "ED50": 7},
      {"smiles": "O=C(CCN1CCC(c2c[nH]c3ccccc23)CC1)c1ccc(F)cc1", "note": "[Example 8, hydrochloride]", "ED50": 2.5}
    ]},
    {"system": "mouse", "assay": "chimney test (neuroleptic activity)", "type": "in vivo", "settings": "ip, 25 min, I.P., 25 minutes after intraperitoneal administration, read-out: DE50 Chimney Test", "description": "(§1) b. The chimney test which consists of placing a mouse in the extreme end of a glass tube 30 cm long and with a diameter adapted to the size of the animal. This tube is straightened vertically in a rapid motion and the animal with its head down mounts normally the length of the tube in less than 30 seconds. The test was effected 25 minutes after intraperitoneal administration of the test compounds to determine the DE50 dose which is the dose at which 50% of the animals effected a mounting in less than 30 seconds.", "units": {"ED50": "mg/kg"}, "values": [
      {"smiles": "O=C(CCCN1CCC(c2c[nH]c3ccccc23)CC1)c1ccc(F)cc1", "note": "[Example 1, p-fluoro-ω-[4'-(3\"-indolyl)-piperidino]-butyrophenone hydrochloride]", "ED50": 1.6},
      {"smiles": "Cn1cc(C2CCN(CCCC(=O)c3ccc(F)cc3)CC2)c2ccccc21", "note": "[Example 2, p-fluoro-ω-[4'-(1\"-methyl-3\"-indolyl)-piperidino]-butyrophenone hydrochloride]", "ED50": 4.5},
      {"smiles": "COc1ccc2c(C3CCN(CCCC(=O)c4ccc(F)cc4)CC3)c[nH]c2c1", "note": "[Example 3, p-fluoro-ω-[4'-(6\"-methoxy-3\"-indolyl)-piperidino]-butyrophenone hydrochloride]", "ED50": 0.9},
      {"smiles": "COc1ccc2[nH]cc(C3CCN(CCCC(=O)c4ccc(F)cc4)CC3)c2c1", "note": "[Example 4, p-fluoro-ω-[4'-(5\"-methoxy-3\"-indolyl)-piperidino]-butyrophenone hydrochloride]", "ED50": 0.2},
      {"smiles": "COc1ccc2c(C3CCN(CCCC(=O)c4ccc(F)cc4)CC3)c(C)[nH]c2c1", "note": "[Example 5, p-fluoro-ω-[4'-(2\"-methyl-6\"-methoxy-3\"-indolyl)-piperidino]butyrophenone]", "ED50": 0.3},
      {"smiles": "O=C(CCCN1CCC(c2c[nH]c3ccccc23)CC1)c1ccccc1", "note": "[Example 7, ω-[4'-(3'-indolyl)-piperidino]-butyrophenone hydrochloride]", "ED50": 4},
      {"smiles": "O=C(CCN1CCC(c2c[nH]c3ccccc23)CC1)c1ccc(F)cc1", "note": "[Example 8, hydrochloride]", "ED50": 2.7}
    ]},
    {"system": "young rat", "assay": "cataleptic activity test", "type": "in vivo", "settings": "ip, I.P., dose provoking catalepsy in 50% of the animals, read-out: DE50 Test of Cataleptic Activity", "source_text": "c. […] The DE50 dose is that dose provoking catalepsy in 50% of the animals after administration of the product.", "units": {"ED50": "mg/kg"}, "values": [
      {"smiles": "O=C(CCCN1CCC(c2c[nH]c3ccccc23)CC1)c1ccc(F)cc1", "note": "[Example 1, p-fluoro-ω-[4'-(3\"-indolyl)-piperidino]-butyrophenone hydrochloride]", "ED50": 8.5},
      {"smiles": "Cn1cc(C2CCN(CCCC(=O)c3ccc(F)cc3)CC2)c2ccccc21", "note": "[Example 2, p-fluoro-ω-[4'-(1\"-methyl-3\"-indolyl)-piperidino]-butyrophenone hydrochloride]", "ED50": 12},
      {"smiles": "COc1ccc2c(C3CCN(CCCC(=O)c4ccc(F)cc4)CC3)c[nH]c2c1", "note": "[Example 3, p-fluoro-ω-[4'-(6\"-methoxy-3\"-indolyl)-piperidino]-butyrophenone hydrochloride]", "ED50": 2},
      {"smiles": "COc1ccc2[nH]cc(C3CCN(CCCC(=O)c4ccc(F)cc4)CC3)c2c1", "note": "[Example 4, p-fluoro-ω-[4'-(5\"-methoxy-3\"-indolyl)-piperidino]-butyrophenone hydrochloride]", "ED50": 6},
      {"smiles": "COc1ccc2c(C3CCN(CCCC(=O)c4ccc(F)cc4)CC3)c(C)[nH]c2c1", "note": "[Example 5, p-fluoro-ω-[4'-(2\"-methyl-6\"-methoxy-3\"-indolyl)-piperidino]butyrophenone]", "ED50": 3.5},
      {"smiles": "O=C(CCCN1CCC(c2c[nH]c3ccccc23)CC1)c1ccccc1", "note": "[Example 7, ω-[4'-(3'-indolyl)-piperidino]-butyrophenone hydrochloride]", "ED50": 11}
    ]},
    {"system": "dogs", "assay": "anti-emetic activity test vis-a-vis apomorphine hydrochloride", "type": "in vivo, dog", "settings": "Canis lupus familiaris, ip, read-out: DE50 Test of Anti-emetic Activity", "description": "(§2) The neuroleptic activity of the compounds of Examples 1 to 8 were determined in the following 4 tests and the results are reported in Table I:\n(§3) d. The anti-emetic activity test which is determined on dogs vis-a-vis a subcutaneous injection of 0.1 mg/kg of apomorphine hydrochloride to determine the DE50 dose which is that dose which reduces 50% of the number of vomitings provoked by the injection of apomorphine hydrochloride.", "units": {"ED50": "mg/kg"}, "values": [
      {"smiles": "Cn1cc(C2CCN(CCCC(=O)c3ccc(F)cc3)CC2)c2ccccc21", "note": "[Example 2, p-fluoro-ω-[4'-(1\"-methyl-3\"-indolyl)-piperidino]-butyrophenone hydrochloride]", "ED50": 0.2}
    ]},
    {"system": "dogs", "assay": "anti-emetic activity test vis-a-vis apomorphine hydrochloride", "type": "in vivo, dog", "settings": "Canis lupus familiaris, ip; I.P.; dogs; subcutaneous 0.1 mg/kg apomorphine hydrochloride; 50% reduction of vomitings; read-out: DE50 Test of Anti-emetic Activity", "description": "as §2, §3", "units": {"ED50": "mg/kg"}, "values": [
      {"smiles": "O=C(CCCN1CCC(c2c[nH]c3ccccc23)CC1)c1ccc(F)cc1", "note": "[Example 1, p-fluoro-ω-[4'-(3\"-indolyl)-piperidino]-butyrophenone hydrochloride]", "ED50": 0.02},
      {"smiles": "COc1ccc2c(C3CCN(CCCC(=O)c4ccc(F)cc4)CC3)c[nH]c2c1", "note": "[Example 3, p-fluoro-ω-[4'-(6\"-methoxy-3\"-indolyl)-piperidino]-butyrophenone hydrochloride]", "ED50": 0.01},
      {"smiles": "COc1ccc2[nH]cc(C3CCN(CCCC(=O)c4ccc(F)cc4)CC3)c2c1", "note": "[Example 4, p-fluoro-ω-[4'-(5\"-methoxy-3\"-indolyl)-piperidino]-butyrophenone hydrochloride]", "ED50": "< 0.3"},
      {"smiles": "COc1ccc2c(C3CCN(CCCC(=O)c4ccc(F)cc4)CC3)c(C)[nH]c2c1", "note": "[Example 5, p-fluoro-ω-[4'-(2\"-methyl-6\"-methoxy-3\"-indolyl)-piperidino]butyrophenone]", "ED50": 0.0045},
      {"smiles": "O=C(CCCN1CCC(c2c[nH]c3ccccc23)CC1)c1ccccc1", "note": "[Example 7, ω-[4'-(3'-indolyl)-piperidino]-butyrophenone hydrochloride]", "ED50": 0.06}
    ]},
    {"system": "not listed separately", "assay": "acute toxicity (DL50)", "settings": "mouse, in vivo, ip; I.P.; mice; mortality recorded 48 hours after administration", "description": "The different products were tested for the dose which would kill 50% of mice when administered intraperitoneally (DL50).", "units": {"LD50 at 48 h": "mg/kg"}, "values": [
      {"smiles": "O=C(CCCN1CCC(c2c[nH]c3ccccc23)CC1)c1ccc(F)cc1", "note": "[Example 1, p-fluoro-ω-[4'-(3\"-indolyl)-piperidino]-butyrophenone hydrochloride]", "LD50 at 48 h": 100},
      {"smiles": "Cn1cc(C2CCN(CCCC(=O)c3ccc(F)cc3)CC2)c2ccccc21", "note": "[Example 2, p-fluoro-ω-[4'-(1\"-methyl-3\"-indolyl)-piperidino]-butyrophenone hydrochloride]", "LD50 at 48 h": 185},
      {"smiles": "COc1ccc2c(C3CCN(CCCC(=O)c4ccc(F)cc4)CC3)c[nH]c2c1", "note": "[Example 3, p-fluoro-ω-[4'-(6\"-methoxy-3\"-indolyl)-piperidino]-butyrophenone hydrochloride]", "LD50 at 48 h": 190},
      {"smiles": "COc1ccc2[nH]cc(C3CCN(CCCC(=O)c4ccc(F)cc4)CC3)c2c1", "note": "[Example 4, p-fluoro-ω-[4'-(5\"-methoxy-3\"-indolyl)-piperidino]-butyrophenone hydrochloride]", "LD50 at 48 h": 300},
      {"smiles": "COc1ccc2c(C3CCN(CCCC(=O)c4ccc(F)cc4)CC3)c(C)[nH]c2c1", "note": "[Example 5, p-fluoro-ω-[4'-(2\"-methyl-6\"-methoxy-3\"-indolyl)-piperidino]butyrophenone]", "LD50 at 48 h": 600},
      {"smiles": "O=C(CCCN1CCC(c2c[nH]c3ccccc23)CC1)c1ccc(Br)cc1", "note": "[Example 6, p-bromo-ω-[4'-(3\"-indolyl)-piperidino]-butyrophenone hydrochloride]", "LD50 at 48 h": 300},
      {"smiles": "O=C(CCCN1CCC(c2c[nH]c3ccccc23)CC1)c1ccccc1", "note": "[Example 7, ω-[4'-(3'-indolyl)-piperidino]-butyrophenone hydrochloride]", "LD50 at 48 h": 300},
      {"smiles": "O=C(CCN1CCC(c2c[nH]c3ccccc23)CC1)c1ccc(F)cc1", "note": "[Example 8, hydrochloride]", "LD50 at 48 h": 600}
    ]},
    {"system": "not listed separately", "assay": "neuroleptic activity, overall (4 tests of Table I)", "type": "in vivo", "settings": "summary of Table I", "description": "as §2\na. The traction test which consists of suspending a mouse by his front paws from a metal wire stretched horizontally. In a time less than 5 seconds, the normal animal effected recovering by managing to bring one of the rear paws to the wire. The test was run 25 minutes after intraperitoneal administration of the test product to determine the DE50 dose at which 50% of the animals effected recovering in less than 5 seconds.\nas §1\nc. The cataleptic activity test using the technique of Boissier et al [Therapie, Vol. 18 (1963), p. 1257-1277] with a young rat having slightly twisted homolaterally paws and noting the intensity of catalepsy. The DE50 dose is that dose provoking catalepsy in 50% of the animals after administration of the product.\nas §3", "values": [
      {"smiles": "O=C(CCCN1CCC(c2c[nH]c3ccccc23)CC1)c1ccc(F)cc1", "note": "[Example 1, p-fluoro-ω-[4'-(3\"-indolyl)-piperidino]-butyrophenone hydrochloride]", "neuroleptic activity (in words)": "very interesting neuroleptic activity"},
      {"smiles": "COc1ccc2c(C3CCN(CCCC(=O)c4ccc(F)cc4)CC3)c[nH]c2c1", "note": "[Example 3, p-fluoro-ω-[4'-(6\"-methoxy-3\"-indolyl)-piperidino]-butyrophenone hydrochloride]", "neuroleptic activity (in words)": "very interesting neuroleptic activity"},
      {"smiles": "COc1ccc2[nH]cc(C3CCN(CCCC(=O)c4ccc(F)cc4)CC3)c2c1", "note": "[Example 4, p-fluoro-ω-[4'-(5\"-methoxy-3\"-indolyl)-piperidino]-butyrophenone hydrochloride]", "neuroleptic activity (in words)": "very interesting neuroleptic activity"},
      {"smiles": "COc1ccc2c(C3CCN(CCCC(=O)c4ccc(F)cc4)CC3)c(C)[nH]c2c1", "note": "[Example 5, p-fluoro-ω-[4'-(2\"-methyl-6\"-methoxy-3\"-indolyl)-piperidino]butyrophenone]", "neuroleptic activity (in words)": "very interesting neuroleptic activity"}
    ]}
  ]
}
